Here are results for three molecules from article PMC10574094, “Discovery of a SHP2 Degrader with In Vivo Anti-Tumor Activity” (Molecules, 2023).

The target of data set [1] is T1, SHP2 (Homo sapiens, UniProt Q06124).
T1 sequence (Q06124 1-593): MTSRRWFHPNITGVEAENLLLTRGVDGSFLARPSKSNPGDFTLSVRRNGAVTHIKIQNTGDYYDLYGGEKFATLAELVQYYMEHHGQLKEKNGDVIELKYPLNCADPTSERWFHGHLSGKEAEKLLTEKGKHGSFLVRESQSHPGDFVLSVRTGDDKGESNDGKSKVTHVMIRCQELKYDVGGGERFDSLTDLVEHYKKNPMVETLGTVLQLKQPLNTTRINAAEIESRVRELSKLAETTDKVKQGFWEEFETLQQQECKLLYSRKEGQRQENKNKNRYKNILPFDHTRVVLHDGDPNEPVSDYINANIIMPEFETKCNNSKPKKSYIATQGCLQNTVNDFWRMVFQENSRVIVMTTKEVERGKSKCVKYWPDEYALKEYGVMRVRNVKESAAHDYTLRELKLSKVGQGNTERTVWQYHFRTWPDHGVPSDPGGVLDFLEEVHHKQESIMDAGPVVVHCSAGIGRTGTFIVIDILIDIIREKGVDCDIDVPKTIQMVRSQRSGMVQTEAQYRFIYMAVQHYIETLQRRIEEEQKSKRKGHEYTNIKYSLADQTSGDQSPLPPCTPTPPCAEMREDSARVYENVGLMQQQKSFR
The experiment in a line: SHP2 degradation by Western blotting in HEK293 cells. The class given is cell-based. Further details: endogenous in cells; host or cells: HEK293. As to conditions: HEK293, 16 h, 250 nM P9 in combination with 1 µM 3, 10 µM MG132, 1 µM MLN4924, 40 µM VHL-2 or 40 µM Lenalidomide. As for the experimental part: HEK293, SKBR3, U2OS, MCF7 and A549 cells were grown in DMEM supplemented with 10% FBS, penicillin (50 units/mL), and streptomycin (50 μg/mL) in a 37 °C incubator containing 5% CO2. […] For western-blot analysis, protein samples were separated by SDS-PAGE, transferred to nitrocellulose membranes, and incubated overnight at 4 °C with corresponding primary antibodies diluted in 5% BSA in phosphate-buffered saline Tween (PBST). SuperSignal™ West Pico PLUS (PI34580; Thermo Scientific) was used to visualize the antibodies in the bioanalytical imaging system (Azure Biosystems c500). […] Anti-PTP1B (ab244207) antibody was purchased from Abcam. For colony formation assay, a total of approximately 200–500 cells were seeded to each well in a 12-well plate.
Supplemental Figures, Schemes, and Tables:
Figure S1. Western blots of degradation assay for PROTAC screening. (A) Degradation assay of
compo un ds i n Table 1 at 1 μM fo r 16 hours in H EK29 3 cells. (B) Degradation assay of compounds in Table
1 at 10 μM for 16 hours in HEK293 cells. (C) Degradation assay of compounds in Table 2 at 1 μM for 16

Another data set has as its system pERK1/2. Set-up: method as in PMID 32910655. As to conditions: cited from earlier work.
In data set [2] the target is T1, SHP2. Set-up: endogenous in cells; host or cells: KYSE-520. The following applies: cited from earlier work.
A short description of data set [3]: Decomposition of CRBN-based PROTACs in DMEM media or water (LCMS). The format is physicochemical. The following applies: 10 μM, within 3 h, DMEM cell media or water, room temperature. The text has this:
With the desired SHP2 ligand in hand, we synthesized an initial set of PROTAC molecules using pomalidomide or lenalidomide as a ligand of the E3 ligase Cereblon (CRBN), which is one of the most productive E3 in the development of PROTACs. […] This observation is consistent with the fact that phthalimides can be smoothly hydrolyzed in the presence of water and an organic base, as these PROTAC compounds contain a basic aliphatic amino group. Given that this free amino group in the allosteric inhibitors is essential for the binding affinity to SHP2 [28], we reasoned that pomalidomide or lenalidomide-based CRBN ligands are not suitable for the development of in vivo efficacious SHP2 degraders in this study due to stability considerations.
Scheme S1. Decomposition of CRBN-based PROTACs in the presence of water. 10 μM compound 11 or
12 was incubated in DMEM media or water for 3 hours. The fina l co ncentrations of the compounds at
the endpoint were quantified by LCMS.
Table S1. Enzymatic IC50s of first generation SHP2 PROTACs against full length SHP2
Compound ID Linker Structure Linker Length (atom) SHP2 IC50 (n M) […]

In the case of `CC1(CN)CCN(c2cnc(Sc3cccc(Cl)c3Cl)c(N)n2)CC1` [compound 3, reference compound], the “effect on P9-induced SHP2 degradation” value at SHP2 [1] is “prohibited P9-induced SHP2 degradation”. For the same molecule, in the data set on pERK1/2, the IC50 is 88 nM.

Turning to `CCCCC1(CN)CCN(c2cnc(Sc3ccnc(N)c3Cl)c(N)n2)CC1` [compound 2], the IC50 on SHP2 [2] was 17 nM.

On to `NCC1(CCCCCC(=O)NCCCCCC(=O)Nc2cccc3c2CN(C2CCC(=O)NC2=O)C3=O)CCN(c2cnc(Sc3cccc(Cl)c3Cl)c(N)n2)CC1` (stereo not shown) [compound 12, 6-(1-(6-amino-5-((2,3-dichlorophenyl)thio)pyrazin-2-yl)-4-(aminomethyl)piperidin-4-yl)-N-(6-((2-(2,6-dioxopiperidin-3-yl)-1-oxoisoindolin-4-yl)amino)-6-oxohexyl)hexanamide], for which the “compound converted into ring-opened products 13” value in data set [3] is “over 90%”.
